Reference: patent US11840913B2, “Methods for stimulation of hydrocarbon-bearing formations while inhibiting corrosion of metal surfaces contacted by acid solutions used in stimulation” (Fluid Energy Group Ltd., priority 2019, dated 2023)

Tests used:
[1] = Visual corrosion testing on grease-coated wireline (Example 7); settings: MEA-HCl 1:4.1 molar ratio at 33% dilution in water; 48 hours; 60° C.
Procedure: A visual corrosion testing was carried out on wireline using three different coatings.
It is worth noting that the acid strength was the same in all three samples and the acidic composition only differed between the first two samples and the last sample with the presence of component B2.

[2] = Corrosion testing of 316 steel coupons in acidic fluids with corrosion inhibitors
From the text: Corrosion inhibitor compositions according to preferred embodiments of the present invention were exposed to corrosion testing. Various steel grades (stainless steel and carbon steel) were subjected to acid compositions comprising corrosion inhibitors according to the present invention against known corrosion inhibitors to the listed compositions for various periods of time at varying temperatures. A desirable corrosion inhibition result was one where the lb/ft^2 corrosion number is at or below 0.05. More preferably, that number is at or below 0.02.
33% HCl:MEA in a 5.5:1 ratio and 50% HCl:MEA in a 5.5:1 ratio indicate the volume amount of the original concentration of a stock solution containing HCl and monoethanolamine in a ratio of 5.5:1. The HCl loading of a 33% HCl:MEA in a 5.5:1 ratio is approximately 6.5% HCl. The HCl loading of 50% HCl:MEA in a 5.5:1 ratio is approximately 10% HCl.

Structure (SMILES) | visual inspection of wireline wire sheathing after acid exposure [1] | prevention of pitting ([2]; higher temperatures (even 110° C. to 120° C.)) | film forming, protection of the stainless steel ([2]; 90° C. to 110° C.)
CC(C)=CCCC(C)=CC=O (racemic) [citral, (±)-3,7-Dimethyl-2,6-octadienal] | completely stripped of its wire sheathing | some effectiveness | 
O=CC=Cc1ccccc1 [ZA, cinnamaldehyde] |  |  | effective film former
